Test results from patent US8003673B2, “Daptomycin for the treatment of biofilm and catheter salvage” (Cubist Pharmaceuticals, Inc., priority 2006, dated 2011).
Converted amounts (≈) assume the structure as drawn. “Also recorded” adds a separate entry of the source. Read-outs that look alike come from different tables or passages of the source.

Experiments:
[1] = tested on: stationary phase S. epidermidis; test: In vitro model of stationary phase bacteria (kill kinetics); format: cell-based; settings: for Cidal activity against stationary phase culture: through 24 hours
Method: The impact of cidal activity of antibacterial compounds on stationary phase bacteria was assayed. Cultures of S. epidermidis and S. aureus were grown to stationary phase (>1×10^9 and centrifuged, washed 2×, and then resuspended into saline or lactated Ringer's solution. The cultures were treated with either daptomycin or vancomycin at 5 mg/ml and the decrease in viable bacteria were measured through 24 hours to determine the kill kinetics.

[2] = tested on: S. epidermidis CVC infection; test: Rat model of CVC infection, antibiotic lock therapy; format: in vivo, Sprague Dawley rats
Method: (§1) Male Sprague Dawley rats (˜250 g) with catheterized jugular veins were used in these studies. Rat catheters (polyurethane tubing, 0.025 inch internal diameter) were inoculated with a culture of S. epidermidis at 5×10^8 CFU/ml. The total volume of the catheters is approximately 40 μl. The catheters were flushed with heparinized saline 1 hour after inoculation, and were maintained by daily flushes. The catheter infection was monitored by daily blood draws that were plated and quantified.
(§2) Daptomycin, vancomycin and nafcillin were used as therapy. Two different dosing regimes were used. The first mimicked clinical infusion with daptomycin administered at 5 mg/ml in the line for 30 minutes once daily compared to vancomycin at 5 mg/ml for 60 minutes twice daily, for a total of 4 days. The second regime simulated antibiotic lock therapy with an 18 hour exposure of daptomycin or vancomycin at 5 mg/ml, followed by a heparinized saline flush, daily for 3 days. In both regimes, the animals received parenteral doses of the appropriate antibiotic by subcutaneous route to simulate total body exposure (as it was not possible to administer the correct dosages through the line at 5 mg/ml). Most trials involved a therapy period, followed by a period of no antibiotic therapy to monitor for resurgence of infection due to surviving bacterial colonies.
(§3) Infection levels were monitored by daily blood draws through the infected catheter. For the terminal harvest, a final blood draw was taken and then the flushed catheter was harvested, and analyzed for surviving bacteria by sonication, vortexing, and plating. The vena cava, heart, lung, kidney, and spleen were assayed as potential metastatic infection sites by aseptic harvest, homogenization, and plating.

[3] = tested on: Methicillin-resistant coagulate negative staphylococci biofilms; format: cell-based, coagulase negative staphylococci (S. epidermidis isolates)
Method: Methicillin-resistant coagulate negative staphylococci biofilms were grown to approximately 10^5 cells per cm^2 for 24 h in glass test tubes, planktonic bacteria rinsed away and Mueller Hinton broth (calcium supplemented to […] in daptomycin tests) containing antimicrobials added to the tubes. The concentrations of antimicrobials studied were two-fold dilutions from 64 to 1 μg/mL of daptomycin, rifampin, or daptomycin plus 0.5 μg/mL rifampin. The tests were incubated overnight in room air at 37° C. The cell density in rinsed biofilms was determined prior to addition of antimicrobials and after incubation. The change in bacterial density after incubation with antimicrobials was determined, and the results were expressed as the lowest antimicrobial concentration that killed 99.90% of biofilm bacteria. Bacteria recovered from tests containing rifampin were tested for rifampin susceptibility.

[4] = tested on: Staphylococcus epidermidis; test: Susceptibility (MIC) of S. epidermidis isolates used in CVC studies
Staphylococcus aureus = test: Susceptibility (MIC) of S. aureus #42 control strain; format: cell-based; settings: strain 42 Staphylococcus aureus; read-out: MIC
[5] = tested on: S. epidermidis CVC infection; test: Rat model of CVC infection, infusion therapy; format: in vivo, Sprague Dawley rats
Method: as §1, §2, §3

[6] = tested on: S. epidermidis biofilm in catheter; test: Histopathology of CVC biofilms in the rat model; format: in vivo, Sprague Dawley rats
Method: The nature of the CVC infection and resulting biofilms in the catheter was determined through histopathology. The data on histopathology can be summarized as follows: • 1. Eight days after implantation, the rat central venous catheter model develops focal biofilms with or without bacterial colonies in the catheter's inner luminal surfaces. At this time point, the thickness of the biofilm varies between 7 to 15 microns. • 2. After 12 days of implantation, the fibrils making up the inner luminal surface biofilm appear to be denser and more organized, and the biofilm layer is slightly thicker (up to 25 microns). • 3. In the saline negative controls, bacterial colonies were present in the biofilm, and identified as Gram positive cocci. • 4. […] However, cocci-like, Gram positive individual round structures were noted. • 5.
At day 12 post infection in untreated rats, as in the previous time point, biofilms tended to be present in the inner luminal surfaces of the indwelling catheter, 5-25 microns thick, and contained variable numbers of basophilic granular bacterial colonies (confirmed by Gram stain). However, in contrast to the previous time point, focal portions of the luminal protein cast appeared to be more organized and contained numerous bluish bacterial colonies. See FIG. 10 showing the biofilm appearance at day 12 post infection. […] Rat A1 served as negative control and received saline (2 mL/kg SC+saline via catheter); Rat A6 received low-dose daptomycin (10 mg/kg SC+5 mg/mL via catheter); Rat A12 received high-dose daptomycin (33 mg/kg SC+5 mg/mL via catheter); and Rat A17 received vancomycin (50 mg/kg SC+5 mg/mL via catheter). Tissues from the four rats were evaluated. FIG. 11, below, is a composite of the findings for all four rats.
FIG. 11 provides histopathological evidence of daptomycin and vancomycin efficacy after 4 days of infusion therapy. In FIG. 11, from left to right, the images illustrate the CVC tissues from rats A1, A6, A12, and A17, respectively. The upper images are all H&E-stained and the bottom images are all Gram-stained. […] These round structures surrounded or encircled cell membranes.

[7] = following 7 days of antibiotic-free heparin flushes
[8] = Antimicrobial Concentration ≧64

## CCCCCCCCCC(=O)N[C@@H](Cc1c[nH]c2ccccc12)C(=O)N[C@H](CC(N)=O)C(=O)N[C@@H](CC(=O)O)C(=O)N[C@@H]1C(=O)NCC(=O)N[C@@H](CCCN)C(=O)N[C@@H](CC(=O)O)C(=O)N[C@H](C)C(=O)N[C@@H](CC(=O)O)C(=O)NCC(=O)N[C@H](CO)C(=O)N[C@@H]([C@H](C)CC(=O)O)C(=O)N[C@@H](CC(=O)c2ccccc2N)C(=O)O[C@@H]1C [Daptomycin]
[1]; 5 mg/ml in lactated Ringer's
  Cidal activity against stationary phase culture: rapidly cidal; also recorded: cidal in lactated Ringer's
[1]; 5 mg/ml in saline
  Cidal activity against stationary phase culture: neither daptomycin nor vancomycin had cidal activity
[1]; in vitro, medium not stated
  Cidal activity against stationary phase S. epidermidis (conclusion): cidal
[2]; 18 hour lock at 5 mg/ml
  Overall outcome of lock therapy: curative and prevented resurgence; also recorded: reduced biofilm to a non-detectable level and largely prevented resurgence of infection
[2]; [7]
  Animals with positive blood draws after lock therapy: 0/6
  Animals with positive catheter at harvest after lock therapy: 1/6
[2]; lock therapy combined with SC dosing
  Metastatic infection after lock therapy: cleared and prevented reemergence of metastatic infection
[3]; Antimicrobial Concentration 1
  # of isolates (lowest concentration that killed 99.90% of biofilm bacteria): 0
[3]; Antimicrobial Concentration 2
  # of isolates (lowest concentration that killed 99.90% of biofilm bacteria): 5
  Mean log10 reduction: 3.3 log10
[3]; Antimicrobial Concentration 4
  # of isolates (lowest concentration that killed 99.90% of biofilm bacteria): 4
  Mean log10 reduction: 3.2 log10
[3]; Antimicrobial Concentration 8
  # of isolates (lowest concentration that killed 99.90% of biofilm bacteria): 5
  Mean log10 reduction: 3.8 log10
[3]; Antimicrobial Concentration 16
  # of isolates (lowest concentration that killed 99.90% of biofilm bacteria): 1
  Mean log10 reduction: 3.5 log10
[3]; Antimicrobial Concentration 32
  # of isolates (lowest concentration that killed 99.90% of biofilm bacteria): 2
  Mean log10 reduction: 3.6 log10
[3]; [8]
  # of isolates (lowest concentration that killed 99.90% of biofilm bacteria): 10
  Mean log10 reduction: 2.0 log10
[3]; after exposure overnight
  Emergence of rifampin resistance in biofilm isolates: did not prevent emergence of rifampin resistance
[3]; comparison with rifampin
  Cidal concentration in biofilm relative to comparator: cidal at lower concentrations than was rifampin
[3]; with ≦32 μg/mL daptomycin
  Isolates with bactericidal activity in biofilm: 27 of 30
[4]; strain 119 Staphylococcus epidermidis
  MIC: 0.25 µg/mL (≈ 0.154 µM)
[4]; strain 1315 Staphylococcus epidermidis
  MIC: 0.5 µg/mL (≈ 0.309 µM)
[4]; strain 1316 Staphylococcus epidermidis
  MIC: 0.5 µg/mL (≈ 0.309 µM)
[4]; strain 1317 Staphylococcus epidermidis
  MIC: 1 µg/mL (≈ 0.617 µM)
[4]; strain 1318 Staphylococcus epidermidis
  MIC: 1 µg/mL (≈ 0.617 µM)
[4]; strain 1319 Staphylococcus epidermidis
  MIC: 1 µg/mL (≈ 0.617 µM)
[4]; strain 1320 Staphylococcus epidermidis
  MIC: 0.5 µg/mL (≈ 0.309 µM)
Staphylococcus aureus
  MIC: 0.5 µg/mL (≈ 0.309 µM)
[5]; 5 mg/ml in line, daptomycin once a day, vancomycin twice a day, after three days of therapy (day 8)
  Catheter infection by CVC blood draw after infusion therapy: reduced most catheter infections to a non-detectable level
[5]; 30 minute infusion at 5 mg/ml
  Overall outcome of infusion therapy: temporarily reduced catheter infections to a non-detectable level, but infection resurgence was common; also recorded: reduced biofilm to non-detectable level, but a resurgence of infection was common
[5]; infusion therapy, same groups as FIG. 3
  Metastatic infection after infusion therapy (vena cava, heart, lung, kidney, spleen): very little metastatic infection at any site
[6]; 5 mg/mL via the catheter
  Biofilm formation and Gram positive bacterial colonies in the biofilm (histopathology summary): did not prevent biofilm formation, but prevented the growth and presence of Gram positive bacterial colonies in the biofilm
[6]; after 4 days of infusion therapy, rat A12 daptomycin 33 mg/kg SC + 5 mg/mL via catheter, rat A17 vancomycin 50 mg/kg SC + 5 mg/mL via catheter
  Bacterial colonies in biofilm, histopathology of single rats: not interpreted to be bacterial colonies
